Marks after values point to notes of the source that are not given here.
Assays:
[1] = test system: model rats of middle cerebral artery thrombosis (MCAT); assay: Effects on cerebral infarct area of MCAT rats; format: in vivo, SD rats; settings: for Cerebral infarct tissue weight/total brain weight (%): 24 h after operation, TTC staining; for Inhibition (%): cerebral infarct vs. model group; for cerebral infarct as compared with the model group (in words): 50 mg/kg, P<0.05
[2] = test system: model rats of middle cerebral artery thrombosis (MCAT); assay: Effects on neural symptoms of MCAT rats; format: in vivo, SD rats; parameters: key to Scores 6 hours / Scores 24 hours: 0/1 per test, summed (max 4); higher = more severe behavioral disorder; settings: for Scores 6 hours: behavioral score 6 h after operation (full mark 4); for Scores 24 hours: behavioral score 24 h after operation (full mark 4)
Method: (1) Grouping and administration: […] Preventive administration was conducted by gavage one time per day for 3 days prior to the model being established. The model was established on day 4, and a dosage of one day was administered by gavage immediately after the model was established. Another dosage of one day was again administered by gavage 12 hours after the model was established. Equivalent amount of the vehicle was administered to the control group. […] Description of technique and early neuropathological consequences following middle cerebral artery occlusion. J Cereb Blood Flow Metab, 1981, 1: 53), and fixed in lateral decubitus position. A bowtype incision of 1.5 cm long was made at the midpoint between canthus and exterior auditory canal. Temporalis was broken and incised to expose temporal bone. […] The filter paper was removed after 30 min when the vascular became black. The localized tissue was washed with physiological brine, and sutured layer by layer. Then rats were placed back into the cages. By following the modified method of Bederson et al. […] (2) The animals were placed onto a smooth ground, and the resistance of contralateral shoulder to push was examined. “0” was recorded if the resistance of both shoulders were equal and strong; and “1” was recorded if the resistance of contralateral shoulder to push was decreased. […] (4) The tail of the rat was lifted 30 cm high away from the ground, and “1” was recorded if the animals ceaselessly circled contralaterally. “4” was full mark in accordance with the above-mentioned standard. The higher the score was, more severe the behavioral disorder of the animal was. 4. Results: The behavioral scores in each group were compared by student t test.

The Stability to Light = format: physicochemical; settings: 10 days, HPLC
Thermal Stability = format: physicochemical; settings: 60° C., 10 days, HPLC
[3] = test system: thrombus of artery-vein bypass in rats; assay: Effects on thrombosis of artery-vein bypass in rats; format: in vivo, SD rats; settings: for Dry-weight of thrombus / Wet-weight of thrombus: once per day for 3 days; for Inhibition (%) of dry-weight of thrombus / Inhibition (%) of wet-weight of thrombus: vs. thrombus model group
Method: Testing methods are described in Chen-Qi, “Methodology for Pharmacological Research of Chinese Medicine”,People's Medical Publishing House, Sep. 1993, 1st ed., page 510. […] Equivalent amount of the vehicle was administered to the thrombus model group. The operation was conducted immediately after the final administration. […] The operation was conducted to separate the right common carotid artery and the left external jugular vein. A pre-weighed suture # 0 of 8 cm long was placed into the middle part of a polyethylene tube of 10 cm long. Then the tube was filled with normal saline, and connected at both ends to the cannula of 3 cm long filled with normal saline. One end of the tube was inserted into the left external jugular vein, and another end was inserted into the right common carotid artery. The blood flowed from the right common carotid artery to the polyethylene tube, and then flow back to the left external jugular vein, so as to construct a bypass circulation. […] The wet-weight of the thrombus was obtained by subtracting the weight of the suture and the paper from this total wet weight. […] The thrombus was taken out and weighed to obtain a total dry weight. The dry weight of the thrombus was obtained by subtracting the weight of the suture and the paper form this total dry weight. The results in each group were compared by student's t test. […] Testing Results

[4] = The Stability of Aqueous Solution; settings: for decomposed product detected (in words): after exposed to water for 24 hours; for wt % decomposed product: aqueous solution 0.2 mg/ml
Method: Compounds were dissolved in water to form aqueous solutions in a concentration of 0.2 mg/ml, and the amount of decomposed products were measured.
The amounts of decomposed products were determined in accordance with the test described in Pharmacopoeia of P.R. China, 2000 edition, appendix VD of part two, by HPLC method, C18 column, mobile phase of acetonitrile:0.02M sodium dihydrogen phosphate=40:60, detecting wavelength of 230 nm, flow rate of 1 ml/min.

[5] = 50 mg/kg by gavage, vs. model group
[6] = 100 mg/kg by gavage, vs. model group
[7] = 200 mg/kg by gavage, vs. model group

Compound	Cerebral infarct tissue weight/total brain weight (%) ([1]; 50 mg/kg by gavage)	Inhibition (%) ([1]; 50 mg/kg by gavage)	Cerebral infarct tissue weight/total brain weight (%) ([1]; 100 mg/kg by gavage)	Inhibition (%) ([1]; 100 mg/kg by gavage)	Cerebral infarct tissue weight/total brain weight (%) ([1]; 200 mg/kg by gavage)	Inhibition (%) ([1]; 200 mg/kg by gavage)	Scores 6 hours ([2]; 50 mg/kg by gavage)	Scores 24 hours ([2]; 50 mg/kg by gavage)	% inhibition at hour 24 [2, 5] [%]	Scores 6 hours ([2]; 100 mg/kg by gavage)	Scores 24 hours ([2]; 100 mg/kg by gavage)	% inhibition at hour 24 [2, 6] [%]	Scores 6 hours ([2]; 200 mg/kg by gavage)	Scores 24 hours ([2]; 200 mg/kg by gavage)	% inhibition at hour 24 [2, 7] [%]	decomposed product detected, stability to light (in words) (The Stability to Light)	decomposed product detected, thermal stability (in words) (Thermal Stability)	Dry-weight of thrombus ([3]; 50 mg/kg by gavage) [mg]	Wet-weight of thrombus ([3]; 50 mg/kg by gavage) [mg]	cerebral infarct as compared with the model group (in words) [1]	further results
N,N′-dibenzylethylenediamine 2-(α-hydroxypentyl)benzoate	5.85 ± 2.32	21.05	5.50 ± 1.82	30.73	5.09 ± 2.14	33.11	3.45 ± 0.52	3.09 ± 0.54	15.11	3.45 ± 0.52	2.91 ± 0.70	21.98	3.36 ± 0.67	2.82 ± 0.87	24.40	–	–	–	–	–	alleviation on neural symptoms at 24 hours after the operation (in words) ([2]; 50 mg/kg, vs. model group, P<0.01 or P<0.05): significantly alleviation
CCCCC(=O)c1ccccc1C(=O)[O-].[K+] [Potassium 2-(α-n-pentanonyl)benzoate, potassium 2-(α-n-pentanonyl)benzoate]	5.63 ± 1.52	24.02	5.09 ± 2.04	35.89	4.38 ± 1.54	42.44	3.27 ± 0.79	2.91 ± 0.70	–	3.36 ± 0.67	2.82 ± 0.75	–	3.20 ± 0.63	2.10 ± 0.32***^,s	–	no decomposed product	no decomposed product	38.3 ± 15.4	208.8 ± 45.3	significantly reduced	Inhibition (%) of dry-weight of thrombus ([3]; 50 mg/kg by gavage): 25.34%; Inhibition (%) of wet-weight of thrombus ([3]; 50 mg/kg by gavage): 19.44%; Dry-weight of thrombus ([3]; 100 mg/kg by gavage): 35.6 ± 14.0 mg; Wet-weight of thrombus ([3]; 100 mg/kg by gavage): 192.6 ± 41.2 mg; Inhibition (%) of dry-weight of thrombus ([3]; 100 mg/kg by gavage): 30.60%; Inhibition (%) of wet-weight of thrombus ([3]; 100 mg/kg by gavage): 25.69%; Dry-weight of thrombus ([3]; 200 mg/kg by gavage): 28.3 ± 16.3 mg; Wet-weight of thrombus ([3]; 200 mg/kg by gavage): 157.0 ± 51.4 mg; Inhibition (%) of dry-weight of thrombus ([3]; 200 mg/kg by gavage): 44.83%; Inhibition (%) of wet-weight of thrombus ([3]; 200 mg/kg by gavage): 39.43%; decomposed product detected (in words) [4]: no decomposed product; wt % decomposed product ([4]; 0 hr): 0 wt %; wt % decomposed product ([4]; 1 hr): 0 wt %; wt % decomposed product ([4]; 2 hr): 0 wt %; wt % decomposed product ([4]; 4 hr): 0 wt %; wt % decomposed product ([4]; 16 hr): 0 wt %; wt % decomposed product ([4]; 24 hr): 0 wt %
CCCCC(=O)c1ccccc1C(=O)[O-].[Na+] [Sodium 2-(α-n-pentanonyl)benzoate, sodium 2-(α-n-pentanonyl)benzoate]	–	–	–	–	–	–	–	–	–	–	–	–	–	–	–	no decomposed product	no decomposed product	–	–	significantly reduced	decomposed product detected (in words) [4]: no decomposed product; wt % decomposed product ([4]; 0 hr): 0 wt %; wt % decomposed product ([4]; 1 hr): 0 wt %; wt % decomposed product ([4]; 2 hr): 0 wt %; wt % decomposed product ([4]; 4 hr): 0 wt %; wt % decomposed product ([4]; 16 hr): 0 wt %; wt % decomposed product ([4]; 24 hr): 0 wt %
Calcium 2-(α-hydroxypentyl)benzoate	6.39 ± 2.33	13.77	5.82 ± 1.90	26.70	5.41 ± 1.77	28.91	3.45 ± 0.52	3.36 ± 0.50	7.69	3.55 ± 0.52	3.09 ± 0.70	17.16	3.45 ± 0.52	2.91 ± 0.54	21.98	–	–	–	–	–	–
CCCCC(=O)c1ccccc1C(=O)O.CCCCC(=O)c1ccccc1C(=O)O.c1ccc(CNCCNCc2ccccc2)cc1 [2-(α-n-pentanonyl)benzoate of N,N′-dibenzylethylene diamine]	5.14 ± 2.17	30.63	4.68 ± 1.69	41.06	4.60 ± 1.26	39.55	3.45 ± 0.69	2.91 ± 0.70	20.05	3.45 ± 0.52	2.36 ± 0.67	36.73	3.27 ± 0.79	2.55 ± 0.52	31.64	no decomposed product	no decomposed product	39.0 ± 10.8	207.1 ± 45.3	significantly reduced	Inhibition (%) of dry-weight of thrombus ([3]; 50 mg/kg by gavage): 23.98%; Inhibition (%) of wet-weight of thrombus ([3]; 50 mg/kg by gavage): 20.10%; Dry-weight of thrombus ([3]; 100 mg/kg by gavage): 29.9 ± 13.6 mg; Wet-weight of thrombus ([3]; 100 mg/kg by gavage): 157.9 ± 67.9 mg; Inhibition (%) of dry-weight of thrombus ([3]; 100 mg/kg by gavage): 41.72%; Inhibition (%) of wet-weight of thrombus ([3]; 100 mg/kg by gavage): 39.08%; Dry-weight of thrombus ([3]; 200 mg/kg by gavage): 32.3 ± 12.5 mg; Wet-weight of thrombus ([3]; 200 mg/kg by gavage): 191.7 ± 34.8 mg; Inhibition (%) of dry-weight of thrombus ([3]; 200 mg/kg by gavage): 37.04%; Inhibition (%) of wet-weight of thrombus ([3]; 200 mg/kg by gavage): 26.04%

Source: US20070203233A1, “NOVEL 2-(alpha-N-PENTANONYL)BENZOATES, THEIR PREPARATION AND USE” (priority 2004, published 2007)
